Test results as given in patent publication US6762202B2, “Infrared thermography and methods of use” (NitroMed, Inc., priority 2000, dated 2004).

Key:
labia and clitoris = assay: Infrared thermographic measurement of labial/clitoral temperature after topical administration; format: in vivo, Female white New Zealand rabbits; conditions: for temperature of the labia and clitoris following the application: 50 μL
Procedure: Female white New Zealand rabbits were anaesthetized with pentobarbitol sodium and placed in a supine position on a warming pad. The warming pad was connected to a temperature control unit to maintain the core (rectal) temperature to 38° C. The labia and clitoris were exposed and kept in position by taping the surrounding skin to the nearby abdominal area. The infrared camera (THERMACAM® SC 1000, Inframetrics Inc., North Billerica, Mass.) was focused on the labia and clitoris and the animal was covered with a chamber to maintain the heat loss due to air movement.
After a steady baseline temperature was maintained and recorded for at least 10 minutes the compound (50 μL) was applied to the surface of the labia and clitoris using a syringe and 27 G needle. The compound was formulated in a mixture of dimethyl sulfoxide (25%) and poly(ethylene glycols) (75%). The poly(ethylene glycols) was a mixture of poly(ethylene glycol) 1450 and poly(ethylene glycol) 400 in a ratio of 1:9 respectively.
The images from the infrared camera were electronically transferred to a PC computer and analyzed using TherMonitor 95, version 1.61 (Thermoteknix System Ltd., Mount pleasant,Cambridge, U. K.). Various color scales in the visible wave length are used to depict the temperature change of the recorded images.

labial blood flow = assay: Laser doppler measurement of labial/clitoral blood flow after topical administration; format: in vivo, Female white New Zealand rabbits; conditions: 5% or 10%, 50 μL topical in MIGLYOL; laser doppler probe; FIG. 6
Procedure: Female white New Zealand rabbits were anaesthetized with Ketamine/Xylazine mixture and placed in supine position. A laser doppler probe (LASERFLO, BPM 403, Vasamedics, Inc., Minn.) was placed at the labium surface, and after steady baseline blood flow was maintained and recorded for at least 10 minutes, Example 5 (5%, 50 μL), 10% of Example 7 (10%, 50 μL), or vehicle alone (50 μL, MIGLYOL®) was applied to the surface of the labia and clitoris. […] The time course for the increase in blood flow (FIG. 6) was very similar to the time course for the increase in labial clitoral temperature (FIG. 5).

Question: Which results are given for `CC(C)(SN=O)C1COC(=O)N1` (centres unmarked) [Example 2, 4-(1-Methyl-1-(nitrosothio)ethyl)-1,3-oxazolidin-2-one]?
Answer: melting point: 65 °C; temperature of the labia and clitoris following the application (labia and clitoris; 10% topical, ~32° C. prior to application, FIG. 4): 36 °C

Question: Which “temperature after addition of the vasoconstrictor (decrease)” value (labia and clitoris; 10% applied 60 minutes after Example 2 (10%), monitored for 5 minutes, decrease from 36° C., FIG. 4) does the source give for `CNC[C@H](O)c1cccc(O)c1` [phenylephrine, reference compound] here?
Answer: 32 °C

Question: For `N[C@@H](CCC(=O)N[C@@H](CSN=O)C(=O)NCC(=O)O)C(=O)O` [Example 7, N-(N-L-y-glutamyl-S-Nitroso-L-cysteinyl)glycine], which “change of labial clitoral temperature” value (labia and clitoris; 2.5%, 50 μL topical in MIGLYOL, FIG. 5) is on record?
Answer: slight and transient increase

Question: And the “increase of temperature of the labia and clitoris” value (labia and clitoris; 5%, 50 μL topical in MIGLYOL, FIG. 5)?
Answer: 3.5 °C

Question: And the “increase of temperature of the labia and clitoris” value (labia and clitoris; 10%, 50 μL topical in MIGLYOL, FIG. 5)?
Answer: 5.5 °C

Question: What about the “duration of sustained increase in labial blood flow” value (labial blood flow) of the same compound?
Answer: > 60 min

Question: And the “increase in labial blood flow as compared to the baseline” value (labial blood flow)?
Answer: 4 fold

Question: With `CC(C)(CN1C(=O)C2C3C=CC(C3)C2C1=O)SN=O` (centres unmarked) [Example 1, 4-Aza-4-(2-methyl-2-(nitrosothio)propyl)tricyclo(5.2.1.0<2,6>)dec-8-ene-3,5-dione] as the compound, how does the “temperature of the labia and clitoris following the application” value (labia and clitoris; 5% topical, ~32° C. prior to application, FIG. 3, vehicle gave no increase) read?
Answer: 35 °C

Question: What does the source list for `CC(C)CON=O` [isobutyl nitrite, reference compound]?
Answer: temperature of the labia and clitoris following the application (labia and clitoris; 10% topical, ~30° C. prior to application, FIG. 1, vehicle gave no increase): 32 °C; temperature of the labia and clitoris following the application (labia and clitoris; 20% topical, ~31° C. prior to application, FIG. 2, vehicle gave no increase): 34 °C
